Converted amounts (≈) assume the structure as drawn.
Columns and labels:
[1] = target: T1, 1-deoxy-D-xylulose-5-phosphate synthase (Haemophilus influenzae (strain 86-028NP), UniProt Q4QKG6); test: Inhibition of Haemophilus influenzae recombinant DXPS
T1 sequence (Q4QKG6 whole entry): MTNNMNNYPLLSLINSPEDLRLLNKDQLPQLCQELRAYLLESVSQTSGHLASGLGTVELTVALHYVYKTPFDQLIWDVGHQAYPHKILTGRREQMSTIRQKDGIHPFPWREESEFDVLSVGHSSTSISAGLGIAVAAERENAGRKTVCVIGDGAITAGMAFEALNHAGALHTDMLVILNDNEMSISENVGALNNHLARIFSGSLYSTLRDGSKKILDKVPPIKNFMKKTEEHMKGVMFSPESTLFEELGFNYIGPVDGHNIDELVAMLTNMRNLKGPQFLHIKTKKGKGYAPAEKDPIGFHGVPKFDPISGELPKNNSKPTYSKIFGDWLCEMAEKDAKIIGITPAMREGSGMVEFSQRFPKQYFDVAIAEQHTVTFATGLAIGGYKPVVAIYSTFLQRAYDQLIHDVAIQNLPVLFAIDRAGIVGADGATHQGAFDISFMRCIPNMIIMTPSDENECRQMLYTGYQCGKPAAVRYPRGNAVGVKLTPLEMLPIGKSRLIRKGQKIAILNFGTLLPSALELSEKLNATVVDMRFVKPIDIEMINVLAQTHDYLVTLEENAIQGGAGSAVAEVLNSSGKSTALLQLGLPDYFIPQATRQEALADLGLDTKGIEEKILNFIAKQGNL

[2] = test system: HFF; test: Cytotoxicity against human HFF cells assessed as inhibition of cell proliferation upto 1000 uM incubated for 96 hrs by SYBR-safe assay; assay type: toxicity, cell-based
[3] = Inhibition of N-terminal his-tagged Chlamydomonas DXPS
[4] = test system: Haemophilus influenzae; test: Antibacterial activity against Haemophilus influenzae ATCC 43095 assessed as reduction in bacterial growth incubated for 20 hrs; assay type: functional
[5] = Permeability of the compound assessed as absorbed fraction incubated for 10 hrs by PAMPA assay; assay type: ADME
[6] = test system: Escherichia coli; test: Antibacterial activity against Escherichia coli W3110 assessed as reduction in bacterial growth incubated for 20 hrs; assay type: functional

Structure (SMILES): CC1(C)C(=O)ON(Cc2ccccc2Cl)C1=O [KETOCLOMAZONE]
- IC50 [1]: 28 µM
- Activity [2]: Non-Toxic
- IC50 [3]: 100 µM
- MIC [4]: 31 µM (≈ 7.86 µg/mL)
- permeability [5]: 47%
- MIC [6]: 3100 µM (≈ 786 µg/mL)

Structure (SMILES): CC(C)(C(=O)O)C(=O)N(O)Cc1ccccc1Cl
- MIC [4]: 117 µM (≈ 31.8 µg/mL)
